Assay results taken from patent publication US3962282A, “Juvenile hormone mimics” (priority 1974, dated 1976).

Tests used:
Tenebrio molitor pupae = assay: topical application to Tenebrio molitor pupae, maturation inhibition; assay type: in vivo
Source text: (§1) The compounds were applied in acetone solution at concentrations of 10 percent, 1 percent and 0.5 percent. One microliter of the acetone solution was applied to each test specimen. Ten test specimens were employed for each insect at each concentration and compared to ten acetone controls and ten zero controls. Approximately eight to ten days were required before results could be ascertained.
(§2) The insect species used in the test were Tenebrio molitor pupae; milkweed bug, fourth nymphal stage; wax moth, fifth larval stage; and Mexican bean beetle, fourth larval stage. At the completion of the test, each specimen was examined for the degree of juvenile and adult characteristics. The milkweed bug, wax moth, and Mexican bean beetle were assigned a numerical rating of 0 to 3 with 0 indicating no effect and 3 indicating the maximum effect or least adult development. Because of differences in morphology the Tenebrio rating scale was 0 to 4. In all cases a rating of 2 or higher means that the insect is incapable of reproduction. The number of specimens in each rating classification are given. In any test were the total of specimens reported is less than 10, those unreported died in some metamorphic stage. Such deaths indicate control, since the dead insects are not capable of reproducing.

milkweed bug = assay: topical application to milkweed bug, fourth nymphal stage, maturation inhibition; assay type: in vivo; conditions: rating scale 0-3
Source text: as §1, §2

wax moth = assay: topical application to wax moth, fifth larval stage, maturation inhibition; assay type: in vivo
Source text: as §1, §2

Mexican bean beetle = assay: topical application to Mexican bean beetle, fourth larval stage, maturation inhibition; assay type: in vivo
Source text: as §1, §2

[1] = tested on: Housefly (Musca domestica); assay: housefly rearing diet test, percent adult emergence; assay type: in vivo
Experimental: Test compounds were mixed with the rearing diet of houseflys at various levels. The prepared diet was then placed in an 8 oz. drinking cup. Three cups were prepared for each treatment level and three control cups. Housefly eggs (Musca domestica) were placed in each cup and they were maintained at 28°C. for 1 week. Fifty pupae were then removed from each cup and placed in a petri dish. After the control pupae had emerged into adults, the percent emergence in each dish was recorded. The test compounds used were 7,8-epoxy-4-ethyl-8-methyl-1-(3,4-methylenedioxyphenyl)-3-decene, 4,8-dimetyl-1-(3,4-methylenedioxyphenyl)-2,6-nonadiene and 2,6-dichloro-2,6-dimethyl-9-(3,4-methylenedioxyphenyl)nonane.

housefly larvae = assay: topical application to housefly larvae; assay type: in vivo, Musca domestica
Experimental: as §1
A number of compounds were tested against housefly larvae by topical application in an acetone solution using the method described above for the primary test against Tenebrio, milkweed bug, wax moth, and Mexican bean bettel. The results with the first compound are reported on a scale of 0 to 3 with 0 indicating a normal adult, 1 indicating an adult with deformed wings, 2 indicating a partially emerged adult, and 3 indicating no evidence of emergence. The results for the other compounds are reported onn a scale of 0 to 2 with 0 indicating a normal adult, 1 indicating a partially emerged adult and 2 indicating no evidence of emergence.

[2] = 10% in acetone, 1 microliter topical, rating scale 0 (no effect) to 3 (maximum)

Structure (SMILES): CC(C)(Cl)CCCC(C)(Cl)CCCc1ccc2c(c1)OCO2 (stereo not shown) [2,6-dichloro-2,6-dimethyl-9-(3,4-methylenedioxyphenyl)nonane]
- number of specimens in rating 1 (Tenebrio molitor pupae; 0.5%, rating scale 0-4): 2 specimens
- number of specimens in rating 2 (Tenebrio molitor pupae; 0.5%, rating scale 0-4): 8 specimens
- number of specimens in rating 2 (Tenebrio molitor pupae; 1%, rating scale 0-4): 10 specimens
- number of specimens in rating 2 (Tenebrio molitor pupae; 10%, rating scale 0-4): 1 specimens
- number of specimens in rating 3 (Tenebrio molitor pupae; 10%, rating scale 0-4): 9 specimens
- number of specimens in rating 3 (milkweed bug; 0.5%): 8 specimens
- number of specimens in rating 3 (milkweed bug; 1%): 10 specimens
- number of specimens in rating 3 (milkweed bug; 10%): 5 specimens
- number of specimens in rating 0 (wax moth; 0.5%, rating scale 0-3): 10 specimens
- number of specimens in rating 0 (wax moth; 1%, rating scale 0-3): 10 specimens
- number of specimens in rating 0 (wax moth; [2]): 10 specimens
- number of specimens in rating 0 (Mexican bean beetle; 0.5%, rating scale 0-3): 8 specimens
- number of specimens in rating 1 (Mexican bean beetle; 0.5%, rating scale 0-3): 2 specimens
- number of specimens in rating 0 (Mexican bean beetle; 1%, rating scale 0-3): 5 specimens
- number of specimens in rating 1 (Mexican bean beetle; 1%, rating scale 0-3): 3 specimens
- number of specimens in rating 2 (Mexican bean beetle; 1%, rating scale 0-3): 2 specimens
- number of specimens in rating 1 (Mexican bean beetle; 10%, rating scale 0-3): 1 specimens
- number of specimens in rating 2 (Mexican bean beetle; 10%, rating scale 0-3): 4 specimens
- number of specimens in rating 3 (Mexican bean beetle; 10%, rating scale 0-3): 5 specimens
- percent adult emergence, Cup 1 ([1]; 0.1 ppm in diet): 100%
- percent adult emergence, Cup 2 ([1]; 0.1 ppm in diet): 100%
- percent adult emergence, Cup 3 ([1]; 0.1 ppm in diet): 100%
- percent adult emergence, Cup 1 ([1]; 1 ppm in diet): 100%
- percent adult emergence, Cup 2 ([1]; 1 ppm in diet): 100%
- percent adult emergence, Cup 3 ([1]; 1 ppm in diet): 100%
- percent adult emergence, Cup 1 ([1]; 10 ppm in diet): 100%
- percent adult emergence, Cup 2 ([1]; 10 ppm in diet): 90%
- percent adult emergence, Cup 3 ([1]; 10 ppm in diet): 90%
- control ([1]; 100 ppm): 100%
- percent adult emergence, Cup 1 ([1]; 100 ppm in diet): 0%
- percent adult emergence, Cup 2 ([1]; 100 ppm in diet): 0%
- percent adult emergence, Cup 3 ([1]; 100 ppm in diet): 0%
- number in rating 0 (normal adult) (housefly larvae; 0.5%, scale 0-2): 2
- number in rating 2 (no evidence of emergence) (housefly larvae; 0.5%, scale 0-2): 8
- number in rating 0 (normal adult) (housefly larvae; 1%, scale 0-2): 1
- number in rating 2 (no evidence of emergence) (housefly larvae; 1%, scale 0-2): 9
- number in rating 2 (no evidence of emergence) (housefly larvae; 10%, scale 0-2): 10

Structure (SMILES): CC(=CCCc1ccc2c(c1)OCO2)CCC1OC1(C)C (stereo not shown) [9-(3,4-methylenedioxyphenyl)-2,6-dimethyl-2,3-epoxy-6-nonene]
- number of specimens in rating 4 (Tenebrio molitor pupae; 0.5%, rating scale 0-4): 10 specimens
- number of specimens in rating 0 (Tenebrio molitor pupae; 1%, rating scale 0-4): 1 specimens
- number of specimens in rating 4 (Tenebrio molitor pupae; 1%, rating scale 0-4): 9 specimens
- number of specimens in rating 4 (Tenebrio molitor pupae; 10%, rating scale 0-4): 10 specimens
- number of specimens in rating 1 (milkweed bug; 0.5%): 2 specimens
- number of specimens in rating 2 (milkweed bug; 0.5%): 4 specimens
- number of specimens in rating 1 (milkweed bug; 1%): 5 specimens
- number of specimens in rating 3 (milkweed bug; 1%): 2 specimens
- number of specimens in rating 3 (milkweed bug; 10%): 7 specimens
- number in rating 2 (no evidence of emergence) (housefly larvae; 1%, scale 0-2): 10
- number in rating 2 (no evidence of emergence) (housefly larvae; 10%, scale 0-2): 10

Structure (SMILES): CC(C)=CCC/C(C)=C/CCc1ccc(Cl)c(Cl)c1 [trans-2,6-dimethyl-9-(3,4-dichlorophenyl)-2,6-nonadiene]
- number of specimens in rating 0 (Tenebrio molitor pupae; 0.5%, rating scale 0-4): 10 specimens
- number of specimens in rating 0 (Tenebrio molitor pupae; 1%, rating scale 0-4): 10 specimens
- number of specimens in rating 0 (Tenebrio molitor pupae; 10% in acetone, 1 microliter topical, rating scale 0 (no effect) to 4 (maximum)): 10 specimens
- number of specimens in rating 3 (milkweed bug; 0.5%): 10 specimens
- number of specimens in rating 3 (milkweed bug; 1%): 10 specimens
- number of specimens in rating 3 (milkweed bug; 10%): 10 specimens
- number of specimens in rating 0 (wax moth; 0.5%, rating scale 0-3): 10 specimens
- number of specimens in rating 0 (wax moth; 1%, rating scale 0-3): 10 specimens
- number of specimens in rating 0 (wax moth; [2]): 10 specimens
- number of specimens in rating 0 (Mexican bean beetle; 0.5%, rating scale 0-3): 10 specimens
- number of specimens in rating 0 (Mexican bean beetle; 1%, rating scale 0-3): 10 specimens
- number of specimens in rating 0 (Mexican bean beetle; [2]): 6 specimens
- number of specimens in rating 1 (Mexican bean beetle; 10%, rating scale 0-3): 1 specimens
- number of specimens in rating 2 (Mexican bean beetle; 10%, rating scale 0-3): 1 specimens
- number of specimens in rating 3 (Mexican bean beetle; 10%, rating scale 0-3): 2 specimens
- number in rating 0 (normal adult) (housefly larvae; 0.5%, scale 0-3): 3
- number in rating 2 (partially emerged adult) (housefly larvae; 0.5%, scale 0-3): 1
- number in rating 3 (no evidence of emergence) (housefly larvae; 0.5%, scale 0-3): 6
- number in rating 0 (normal adult) (housefly larvae; 1%, scale 0-3): 8
- number in rating 3 (no evidence of emergence) (housefly larvae; 1%, scale 0-3): 2
- number in rating 0 (normal adult) (housefly larvae; 10%, scale 0-3): 5
- number in rating 3 (no evidence of emergence) (housefly larvae; 10%, scale 0-3): 5

Structure (SMILES): CC(C)=CCC/C(C)=C\CCc1ccc(Cl)cc1 [cis-9-(4-chlorophenyl)-2,6-dimethyl-2,6-nonadiene]
- number in rating 0 (normal adult) (housefly larvae; 0.5%, scale 0-2): 3
- number in rating 1 (partially emerged adult) (housefly larvae; 0.5%, scale 0-2): 3
- number in rating 2 (no evidence of emergence) (housefly larvae; 0.5%, scale 0-2): 3
- number in rating 0 (normal adult) (housefly larvae; 1%, scale 0-2): 2
- number in rating 1 (partially emerged adult) (housefly larvae; 1%, scale 0-2): 2
- number in rating 2 (no evidence of emergence) (housefly larvae; 1%, scale 0-2): 4
- number in rating 1 (partially emerged adult) (housefly larvae; 10%, scale 0-2): 2
- number in rating 2 (no evidence of emergence) (housefly larvae; 10%, scale 0-2): 6

Structure (SMILES): CC(C)=CCC/C(C)=C/CCc1ccc(Cl)cc1 [trans-2,6-dimethyl-9-(4-chlorophenyl)-2,6-nonadiene]
- number of specimens in rating 0 (Tenebrio molitor pupae; 0.5%, rating scale 0-4): 10 specimens
- number of specimens in rating 0 (Tenebrio molitor pupae; 1%, rating scale 0-4): 4 specimens
- number of specimens in rating 1 (Tenebrio molitor pupae; 1%, rating scale 0-4): 3 specimens
- number of specimens in rating 3 (Tenebrio molitor pupae; 1%, rating scale 0-4): 3 specimens
- number of specimens in rating 4 (Tenebrio molitor pupae; 10%, rating scale 0-4): 10 specimens
- number of specimens in rating 3 (milkweed bug; 0.5%): 10 specimens
- number of specimens in rating 3 (milkweed bug; 1%): 10 specimens
- number of specimens in rating 3 (milkweed bug; 10%): 10 specimens
- number of specimens in rating 0 (wax moth; 0.5%, rating scale 0-3): 10 specimens
- number of specimens in rating 0 (wax moth; 1%, rating scale 0-3): 9 specimens
- number of specimens in rating 2 (wax moth; 1%, rating scale 0-3): 1 specimens
- number of specimens in rating 0 (wax moth; [2]): 6 specimens
- number of specimens in rating 1 (wax moth; 10%, rating scale 0-3): 1 specimens
- number of specimens in rating 2 (wax moth; 10%, rating scale 0-3): 3 specimens
- number of specimens in rating 3 (Mexican bean beetle; 0.5%, rating scale 0-3): 10 specimens
- number of specimens in rating 3 (Mexican bean beetle; 1%, rating scale 0-3): 10 specimens
- number of specimens in rating 3 (Mexican bean beetle; 10%, rating scale 0-3): 10 specimens
- number in rating 0 (normal adult) (housefly larvae; 0.5%, scale 0-2): 4
- number in rating 2 (no evidence of emergence) (housefly larvae; 0.5%, scale 0-2): 6
- number in rating 0 (normal adult) (housefly larvae; 1%, scale 0-2): 3
- number in rating 1 (partially emerged adult) (housefly larvae; 1%, scale 0-2): 3
- number in rating 2 (no evidence of emergence) (housefly larvae; 1%, scale 0-2): 4
- number in rating 0 (normal adult) (housefly larvae; 10%, scale 0-2): 3
- number in rating 1 (partially emerged adult) (housefly larvae; 10%, scale 0-2): 1
- number in rating 2 (no evidence of emergence) (housefly larvae; 10%, scale 0-2): 5
